Measurements from PubChem BioAssay (NCI).
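At the GI50, growth is halved. TGI: total growth inhibition.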

Experiments:
Assay in all cases: inhibition of tumour cell growth, NCI panel, 384-well format
[1] = system: NCI-H522 lung
[2] = system: SF-295 CNS
[3] = system: M14 melanoma
[4] = system: NCI/ADR-RES ovarian
[5] = system: RPMI-8226 leukemia
[6] = system: MALME-3M melanoma
[7] = system: DU-145 prostate
[8] = system: UACC-62 melanoma
[9] = system: KM12 colon
[10] = system: COLO 205 colon
[11] = system: OVCAR-4 ovarian
[12] = system: HT29 colon
[13] = system: SK-MEL-2 melanoma
[14] = system: SNB-75 CNS
[15] = system: SR leukemia
[16] = system: RXF 393 renal
[17] = system: SF-268 CNS
[18] = system: SK-MEL-28 melanoma
[19] = system: CAKI-1 renal
[20] = system: BT-549 breast
[21] = system: MDA-MB-231 breast
[22] = system: HOP-92 NSCLC
[23] = system: T-47D breast
[24] = system: U251 glioblastoma
[25] = system: HCT-15 colon
[26] = system: HOP-62 NSCLC
[27] = system: TK-10 renal
[28] = system: SF-539 CNS
[29] = system: 786-0 renal
[30] = system: HCC-2998 colon
[31] = system: A549 NSCLC
[32] = system: MOLT-4 leukemia
[33] = system: MDA-MB-468 breast
[34] = system: MCF7 breast
[35] = system: SNB-19 CNS
[36] = system: NCI-H226 lung
[37] = system: ACHN renal
[38] = system: NCI-H460 NSCLC
[39] = system: NCI-H322M lung
[40] = system: SW-620 colon
[41] = system: HL-60(TB) leukemia
[42] = system: A498 renal
[43] = system: CCRF-CEM leukemia
[44] = system: UACC-257 melanoma
[45] = system: SK-MEL-5 melanoma
[46] = system: OVCAR-5 ovarian
[47] = system: OVCAR-8 ovarian
[48] = system: IGROV1 ovarian
[49] = system: PC-3 prostate
[50] = system: HS 578T breast
[51] = system: EKVX NSCLC
[52] = system: SN12C renal
[53] = system: SK-OV-3 ovarian
[54] = system: OVCAR-3 ovarian
[55] = system: NCI-H23 lung
[56] = system: MDA-MB-435 melanoma

Nc1ccn([C@H]2C[C@@H](O)[C@@H](CO)S2)c(=O)n1
GI50 [1]: 113 nM | TGI [1]: 1150 nM | GI50 [2]: > 100000 nM | TGI [2]: > 100000 nM | GI50 [3]: > 100000 nM | TGI [3]: > 100000 nM | GI50 [4]: 1380 nM | TGI [4]: > 100000 nM | GI50 [5]: 368 nM | TGI [5]: 1590 nM | GI50 [6]: > 100000 nM | TGI [6]: > 100000 nM | GI50 [7]: 20200 nM | TGI [7]: > 100000 nM | GI50 [8]: > 100000 nM | TGI [8]: > 100000 nM | GI50 [9]: 9080 nM | TGI [9]: > 100000 nM | GI50 [10]: > 100000 nM | TGI [10]: > 100000 nM | GI50 [11]: > 100000 nM | TGI [11]: > 100000 nM | GI50 [12]: > 100000 nM | TGI [12]: > 100000 nM | GI50 [13]: > 100000 nM | TGI [13]: > 100000 nM | GI50 [14]: > 100000 nM | TGI [14]: > 100000 nM | GI50 [15]: 2500 nM | TGI [15]: 15800 nM | GI50 [16]: 6980 nM | TGI [16]: > 100000 nM | GI50 [17]: 54400 nM | TGI [17]: > 100000 nM | GI50 [18]: > 100000 nM | TGI [18]: > 100000 nM | GI50 [19]: > 100000 nM | TGI [19]: > 100000 nM | GI50 [20]: 896 nM | TGI [20]: 26300 nM | GI50 [21]: 2950 nM | TGI [21]: > 100000 nM | GI50 [22]: 2350 nM | TGI [22]: > 100000 nM | GI50 [23]: > 100000 nM | TGI [23]: > 100000 nM | GI50 [24]: > 100000 nM | TGI [24]: > 100000 nM | GI50 [25]: 1710 nM | TGI [25]: > 100000 nM | GI50 [26]: 21800 nM | TGI [26]: > 100000 nM | GI50 [27]: > 100000 nM | TGI [27]: > 100000 nM | GI50 [28]: > 100000 nM | TGI [28]: > 100000 nM | GI50 [29]: 54100 nM | TGI [29]: > 100000 nM | GI50 [30]: 4980 nM | TGI [30]: > 100000 nM | GI50 [31]: > 100000 nM | TGI [31]: > 100000 nM | TGI [32]: 27.1 nM | GI50 [33]: > 100000 nM | TGI [33]: > 100000 nM | GI50 [34]: > 100000 nM | TGI [34]: > 100000 nM | GI50 [35]: 4990 nM | TGI [35]: > 100000 nM | GI50 [36]: 96900 nM | TGI [36]: > 100000 nM | GI50 [37]: > 100000 nM | TGI [37]: > 100000 nM | GI50 [38]: 204 nM | TGI [38]: > 100000 nM | GI50 [39]: > 100000 nM | TGI [39]: > 100000 nM | GI50 [40]: > 100000 nM | TGI [40]: > 100000 nM | GI50 [41]: 306 nM | TGI [41]: 1260 nM | GI50 [42]: > 100000 nM | TGI [42]: > 100000 nM | GI50 [43]: 55.2 nM | TGI [43]: 862 nM | GI50 [44]: > 100000 nM | TGI [44]: > 100000 nM | GI50 [45]: 804 nM | TGI [45]: > 100000 nM | GI50 [46]: > 100000 nM | TGI [46]: > 100000 nM | GI50 [47]: 783 nM | TGI [47]: 30800 nM | GI50 [48]: > 100000 nM | TGI [48]: > 100000 nM | GI50 [49]: > 100000 nM | TGI [49]: > 100000 nM | GI50 [50]: > 100000 nM | TGI [50]: > 100000 nM | GI50 [51]: > 100000 nM | TGI [51]: > 100000 nM | GI50 [52]: 11600 nM | TGI [52]: > 100000 nM | GI50 [53]: > 100000 nM | TGI [53]: > 100000 nM | GI50 [54]: 3290 nM | TGI [54]: > 100000 nM | GI50 [55]: > 100000 nM | TGI [55]: > 100000 nM | GI50 [56]: > 100000 nM | TGI [56]: > 100000 nM

CN(C)CCNC(=O)c1cccc2cc3ccccc3nc12
GI50 [1]: 1240 nM | TGI [1]: 2510 nM | GI50 [2]: 974 nM | TGI [2]: 2380 nM | GI50 [3]: 1140 nM | TGI [3]: 2380 nM | GI50 [4]: 876 nM | TGI [4]: 2270 nM | GI50 [5]: 506 nM | TGI [5]: 1490 nM | GI50 [6]: 932 nM | TGI [6]: 2110 nM | GI50 [7]: 1520 nM | TGI [7]: 3120 nM | GI50 [8]: 1000 nM | TGI [8]: 2200 nM | GI50 [9]: 862 nM | TGI [9]: 2440 nM | GI50 [10]: 336 nM | TGI [10]: 651 nM | GI50 [11]: 1790 nM | TGI [11]: 3610 nM | GI50 [12]: 996 nM | TGI [12]: 2210 nM | GI50 [13]: 3280 nM | TGI [13]: 4780 nM | GI50 [14]: 806 nM | TGI [14]: 2130 nM | GI50 [15]: 198 nM | TGI [15]: 349 nM | GI50 [16]: 1120 nM | TGI [16]: 2360 nM | GI50 [17]: 1150 nM | TGI [17]: 2470 nM | GI50 [18]: 1620 nM | TGI [18]: 3010 nM | GI50 [19]: 1020 nM | TGI [19]: 2490 nM | GI50 [20]: 532 nM | TGI [20]: 1680 nM | GI50 [21]: 958 nM | TGI [21]: 2220 nM | GI50 [22]: 688 nM | TGI [22]: 2150 nM | GI50 [23]: 2050 nM | TGI [23]: 4090 nM | GI50 [24]: 741 nM | TGI [24]: 2680 nM | GI50 [25]: 628 nM | TGI [25]: 2020 nM | GI50 [26]: 494 nM | TGI [26]: 1850 nM | GI50 [27]: 1250 nM | TGI [27]: 2950 nM | GI50 [28]: 449 nM | TGI [28]: 1510 nM | GI50 [29]: 1070 nM | TGI [29]: 3040 nM | GI50 [30]: 1460 nM | TGI [30]: 2860 nM | GI50 [31]: 619 nM | TGI [31]: 1900 nM | GI50 [32]: 169 nM | TGI [32]: 310 nM | GI50 [33]: 411 nM | TGI [33]: 791 nM | GI50 [34]: 1120 nM | TGI [34]: 4170 nM | GI50 [35]: 784 nM | TGI [35]: 2690 nM | GI50 [36]: 898 nM | TGI [36]: 2440 nM | GI50 [37]: 961 nM | TGI [37]: 2280 nM | GI50 [38]: 375 nM | TGI [38]: 1250 nM | GI50 [39]: 1740 nM | TGI [39]: 3530 nM | GI50 [40]: 718 nM | TGI [40]: 1990 nM | GI50 [41]: 252 nM | TGI [41]: 462 nM | GI50 [42]: 539 nM | TGI [42]: 2000 nM | GI50 [43]: 246 nM | TGI [43]: 673 nM | GI50 [44]: 1650 nM | TGI [44]: 3050 nM | GI50 [45]: 1180 nM | TGI [45]: 2420 nM | GI50 [46]: 1440 nM | TGI [46]: 3690 nM | GI50 [47]: 611 nM | TGI [47]: 1840 nM | GI50 [48]: 1140 nM | TGI [48]: 2460 nM | GI50 [49]: 1460 nM | TGI [49]: 3290 nM | GI50 [50]: 287 nM | TGI [50]: 883 nM | GI50 [51]: 1740 nM | TGI [51]: 3670 nM | GI50 [52]: 1260 nM | TGI [52]: 2740 nM | GI50 [53]: 1200 nM | TGI [53]: 3290 nM | GI50 [54]: 1340 nM | TGI [54]: 2810 nM | GI50 [55]: 1260 nM | TGI [55]: 2570 nM | GI50 [56]: 1640 nM | TGI [56]: 3230 nM
